# Results published in a melting point compilation (Tetko et al.; mined from patent text by program, amines drawn as free bases though some values may be those of a salt).
row,Structure (SMILES),melting point
1,CCC(=O)c1cc(CC)c(OC)cc1OC,64 to 65 °C
2,CCN1C(=O)CC2(CNC(=O)C2)C1=O (stereo not drawn),168 to 169 °C
3,c1ccc(Nc2ncc3ccncc3n2)cc1,161 °C
4,COC(=O)CCC(=O)N(C)c1cccc(OCc2nc3ccccc3s2)c1,107 to 110 °C
5,CCc1cc(C#N)ccc1N=C1OCC(C)(C)N1C1CCCC1,112 to 114 °C
6,CCN(CC)C(=O)C=Cc1ccc(-c2ccccc2)cc1,113 °C
7,CC(C)(C)OC(=O)N1CCN(CCCC2(C)Cn3cc([N+](=O)[O-])nc3O2)CC1 (stereo not drawn),166 to 167 °C
8,O=C(NC(c1ccccc1)c1cc2ccncc2[nH]1)c1cccnc1 (stereo not drawn),178 to 188 °C
9,COC(=O)C(Cl)C(Cl)c1ccccc1 (stereo not drawn),164 to 165 °C
10,CCCc1c(OCCCOc2ccc3c(=O)cc(-c4ccc(C(=O)O)cc4)oc3c2CCC)ccc(C(C)=O)c1O,226 to 228 °C
11,O=C(N1CCCC1)C1(N2CCCCC2)CCNCC1,144 °C
12,Cc1oc(-c2ccccc2)nc1CCOc1ccc(C=CC#N)cc1,112 to 113 °C
13,CCC(=O)N1CCC(NC(=O)N[C@@H]2C[C@H]2c2ccccc2)CC1 (relative stereo),155 to 158 °C
14,O=CC=C(c1cccc([N+](=O)[O-])c1)c1cccc([N+](=O)[O-])c1,131 to 136 °C
15,O=C(O)c1cnn(-c2ccc(F)cc2)c1,244 to 247 °C
16,CCC(Oc1ccccc1C(C)=O)C(=O)OC1CC(O)C=C2C=CC(C)C(CCC3CC(O)CC(=O)O3)C21 (mixture of isomers),148 to 150 °C
17,CC(=O)Nc1ccc(N(C)C(=O)OCc2ccccc2)c(O)c1,174 °C
18,COc1cc(-c2ccccc2C(F)(F)F)c(Cl)cc1C(=O)N1Cc2ccc(C(=O)N(C)Cc3cccnc3)n2Cc2ccccc21,124 to 126 °C
19,CCCCCCCc1ccc(C=Nc2ccc(C#N)cc2)cc1,32.7 to 33 °C
20,OCC1CCc2cc(OCc3ccccc3)ccc2O1 (racemic),80 to 82 °C
21,Clc1ccc(CCNc2ccc3ccc(NCCc4ccc(Cl)cc4)nc3c2)cc1,55 to 60 °C

row,Structure (SMILES),melting point
1,CC(=O)NC[C@H]1CN(c2ccc(N3CCC4(CC3)COCO4)cc2)C(=O)O1,134 to 138 °C
2,C=CCC(Cc1ccc([N+](=O)[O-])cc1)NC(=O)OCc1ccccc1 (stereo not drawn),94 to 95 °C
3,O=C(O)[C@H](CS)N(Sc1nc2cc(Cl)ccc2s1)C(=O)Cc1ccccc1,155 to 158 °C
4,O=C(CCC(O)c1ccccc1)NCc1ccccc1 (stereo not drawn),92 to 94 °C
5,CCCN(c1ncccc1N)C1CCN(Cc2ccccc2)CC1,73 to 74 °C
6,COC(=O)c1ccccc1C(=O)NN(C(=S)Nc1ccccc1)C(C)C,145 to 147 °C
7,COc1ccc(CCCS(=O)(=O)c2ccc(S(N)(=O)=O)s2)cc1,136 to 138 °C
8,NC(=O)c1ccc(C=CC(=O)N2CCc3c([nH]c4ccccc34)C2c2ccc3c(c2)OCO3)cc1 (stereo not drawn),183 °C
9,c1ccc(Nc2ccc(-c3ccc(N(c4ccc(-c5ccccc5)cc4)c4ccc(-c5ccccc5)cc4)cc3)cc2)cc1,146 °C
10,COc1ccccc1OC(=O)C(=O)Oc1ccccc1OC,123 to 126 °C
11,CCCCc1nc(C(C)=O)c(C#N)[nH]1,77 to 78 °C
12,CCCc1c(OCCCCCOc2ccc3c(c2CCC)OC(C(=O)OCC)CC3=O)ccc(C(C)=O)c1O (stereo not drawn),80 to 81 °C
13,Cc1ccc(NCc2ccc(C(=O)Nc3ccccc3N)cc2)cc1Nc1nccc(-c2cccnc2)n1,112 to 120 °C
14,CCOC(=O)[C@@H](Cc1ccc2ccc(C#N)cc2c1)c1ccc(O[C@H]2CCN(Cc3ccccc3)C2)cc1,95 to 95.5 °C
15,Sc1nc2cc(N3CCNCC3)ccc2[nH]1,260 to 261 °C
16,CC(=O)NC1(c2ccc(CN3CCN(c4ccc(F)cc4F)CC3)cc2)CC1,124 to 125 °C
17,CC(C)(C#N)C(O)(CCc1ccc(F)cc1)Cn1cncn1 (stereo not drawn),152 to 154 °C
18,COc1ccc([C@@H]2O[C@H](CCC(=O)O)C(=O)N(Cc3ccccc3)c3ccccc32)cc1 (relative stereo),107 to 109 °C
19,O=C(c1ccc2cc(Cl)ccc2c1)C1CCNCC1,98 to 100 °C
20,COc1ccc(S(=O)(=O)C(CC(=O)NO)Cc2ccc(OCc3ccccc3)cc2)cc1 (stereo not drawn),128 to 130 °C
21,CCCCCCCCNC(=O)ON=C(Cc1ccccc1)C1=CC(=O)C(C)(C)O1,67 to 68 °C

# The next lines start with the values.
row,melting point,Structure (SMILES)
1,158 to 164 °C,CN1C(=O)CC2(CCc3cc4ccccc4n3C2)C1=O (stereo not drawn)
2,230 to 232 °C,CNC(=O)N1C(=O)C(=O)c2cc(F)ccc21
3,193 to 197 °C,Cn1ccc2ncnc(Oc3ccc(NC(=O)Nc4cc(C(F)(F)F)ccc4F)c(Cl)c3)c21
4,197 to 204 °C,Cc1cc(OCC2CO2)c2cc(C(=O)N(C)C)[nH]c2c1 (stereo not drawn)
5,> 250 °C,O=C1NC(=O)C(=Cc2ccc(C(=O)CCc3ccccc3)nc2)S1
6,128 to 130 °C,Cc1cccc(-c2ccc(C(=O)N3Cc4cccn4Cc4ccccc43)cc2)c1
7,260 °C,CC(=O)N1CC2(CCN(C(=O)Nc3nnc(-c4ccccc4)s3)CC2)c2ccccc21
8,278 to 279 °C,Cc1ccc([N+](=O)[O-])c(C(=O)Nc2nnn[nH]2)c1
9,205 to 207 °C,O=C1N(Cc2ccc(-c3cccc(Cl)c3)o2)c2ccccc2C12COc1cc3c(cc12)OCO3 (stereo not drawn)
10,148 to 151 °C,CCCCCS(=O)(=O)NC(=O)/C=C/c1cc(OCC2CC2)nn1Cc1ccc(C(F)(F)F)cc1Cl
11,91 to 94 °C,COc1ccccc1-c1cccn2nc(Nc3ccc4c(c3)CCN(CCS(C)(=O)=O)CC4)nc12
12,130 to 131 °C,Clc1ccc(Cn2c(-c3ccc4c(c3)OCO4)nc3ccccc32)s1
13,130 to 132 °C,COc1cccc(-c2cccc3c2C(=O)OC(C)(C)O3)n1
14,138 to 141 °C,CC1=NN=C(C=Cc2ccccc2F)c2cc3c(cc2C1)OCO3
15,194 to 195 °C,Cc1cn(C)c2c1N(C(=O)CCBr)c1ccccc1NC2=O
16,166 to 168 °C,CCOC(=O)C1=C(C)NC(C)=C(C(=O)OCC)C1c1cc(Cl)ccc1Cl
17,157 to 159 °C,Cc1c2c3c(ccc2nn1C)CCC3=O
18,130 to 133 °C,CC(C)(C)OC(=O)N1CCc2c(n(CCO)c3cc(Cl)c(Cl)cc23)CC1
19,209 to 211 °C,Cc1cc(Oc2ccc3nc(COc4ccc(CC5SC(=O)NC5=O)cc4)n(C)c3c2)cc(C)c1N (stereo not drawn)
20,333 °C,Oc1cc(O)nc(-c2ccc(Cl)cc2)n1
21,328 °C,CCc1cccc(C)c1CNc1cc(C(=O)O)cn2c(C)nnc12
22,71.5 to 72.9 °C,NS(=O)(=O)c1cccc(C2CC2)c1
23,132 to 136 °C,O=C1c2ccccc2-c2ncccc21

row,melting point,Structure (SMILES)
1,146 to 147 °C,Cc1c(C(=O)N[C@H](C)[C@](O)(Cn2cncn2)c2ccc(F)cc2F)cnn1-c1cccc(C(F)(F)F)c1
2,66 to 67 °C,CCOC(=O)c1cn(C)nc1OCc1ccccc1
3,92 to 94 °C,O=C(O)C1CCc2ccc([N+](=O)[O-])cc21 (stereo not drawn)
4,195 to 205 °C,CCOc1cccc2c1c(=O)n(C)c1c(-c3noc(C4CC4)n3)ncn21
5,51 to 52 °C,Cc1cccc2c(=O)cc(C3CCCC3)oc12
6,225 to 227 °C,CC(=O)OC1C(NC(=O)c2ccc(C(F)(F)F)cc2)c2sc(C(C)=O)cc2OC1(C)C (stereo not drawn)
7,189 °C,CCc1cc(=O)c2ccc(O)cc2o1
8,215 to 218 °C,COc1cc(C)nc(NC(=O)NS(=O)(=O)c2cccc3c2OS(=O)(=O)C(C)C3)n1 (stereo not drawn)
9,> 300 °C,O=c1c2ccc(Cl)cc2[nH]c2c(O)nn(C3CCCc4sccc43)c(=O)c12 (racemic)
10,108 to 112 °C,CCOC(=O)c1ccc(Cl)nc1NCc1ccc(OC)c(Cl)c1
11,> 310 °C,O=C(O)c1cc(-c2ccncc2)n[nH]c1=O
12,139 to 141 °C,CCCOC(=O)C1=C(C)NC(C(OC)OC)=C(C(=O)OC)C1c1ccccc1C#N (stereo not drawn)
13,186 to 188 °C,Cc1c(NCCN)nc(=O)n(C)c1N
14,123 to 124 °C,ClC(=NNc1c(Cl)cc(Cl)cc1Cl)c1ccc(Cl)cc1
15,167 °C,Cn1c(N2CCOC(c3nc(-c4ccccc4)no3)C2)nc(-c2ccncn2)cc1=O (stereo not drawn)
16,180 to 181 °C,CN1CCN(C(=O)c2ccc(-c3cnc4c(c3)N(Cc3ccccc3)CCN4)cc2)CC1
17,181 to 183 °C,CSc1nc(C)nc2c1-c1ccc(Cl)cc1C(c1ccccc1)=NC2
18,188 to 193 °C,CC(CCn1c(=O)[nH]c2cc(F)ccc21)N1CCN(c2ccc(F)cc2)CC1 (stereo not drawn)
19,99 to 101 °C,Oc1ccc2c(c1O)OCC(c1cccc(Cl)c1)C2 (stereo not drawn)
20,91 to 95 °C,CN1CCN(C(=O)N2CC(Oc3ccc(Br)cc3)C2)CC1
21,140 °C,COc1ccc(C(=C2CCN(CCc3c(C)nc4scc(C)n4c3=O)CC2)c2ccc(F)cc2)cc1
22,186 °C,CCCC1(C)C(=O)N(CC(=O)Nc2c(C(C)C)cccc2C(C)C)C(=O)N1c1ccc(C)cc1 (stereo not drawn)
23,180 to 181 °C,CC1CCCC1n1ncc(-c2ccc(S(C)(=O)=O)cc2)c(-c2ccc(F)cc2)c1=O (stereo not drawn)
